Data on one molecule can be found in article PMC12667509, “Inhibition of Macrophage ARID3A Alleviates Myocardial Ischemia‐Reperfusion Injury After Heart Transplantation by Reducing THBS1/CD47 Signaling‐Mediated Neutrophil Extracellular Traps Formation” (Advanced Science, 2025).

The target in the assay is T1, ARID3A (Homo sapiens, UniProt Q99856).
T1 construct: recombinant human protein immobilised on CM5 chip
T1 sequence (Q99856 1-593): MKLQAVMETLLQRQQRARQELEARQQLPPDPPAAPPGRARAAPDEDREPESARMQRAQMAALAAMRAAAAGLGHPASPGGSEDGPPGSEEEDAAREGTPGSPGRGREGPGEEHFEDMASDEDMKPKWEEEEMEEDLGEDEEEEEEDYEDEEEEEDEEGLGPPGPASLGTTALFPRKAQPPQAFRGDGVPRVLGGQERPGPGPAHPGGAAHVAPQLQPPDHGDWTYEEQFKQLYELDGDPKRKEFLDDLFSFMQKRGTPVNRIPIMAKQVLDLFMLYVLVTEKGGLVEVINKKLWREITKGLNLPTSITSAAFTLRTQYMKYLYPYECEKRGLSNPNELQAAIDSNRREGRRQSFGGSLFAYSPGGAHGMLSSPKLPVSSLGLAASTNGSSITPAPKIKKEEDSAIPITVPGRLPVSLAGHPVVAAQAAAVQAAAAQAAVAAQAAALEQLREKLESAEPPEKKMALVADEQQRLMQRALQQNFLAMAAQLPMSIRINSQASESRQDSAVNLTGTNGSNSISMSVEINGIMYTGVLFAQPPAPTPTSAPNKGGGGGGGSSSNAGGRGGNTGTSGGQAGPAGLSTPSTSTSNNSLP
Description: SPR (Biacore T200, CM5 chip, kinetic analysis). It counts as binding.

Each structure is given as a SMILES string.

The Kd is the equilibrium constant for the complex coming apart. Read a low Kd as higher affinity.

`C=C(CC(=O)OCCCCCCCC)C(=O)O` [4‐OI, 4‐octyl itaconate] gave a Kd of 7.64 µM.
